In patent US7166598B2, “Piperazine derivatives” (Astellas Pharma Inc., priority 1998, dated 2007) one finds melting point data, which are given here for 55 compounds.

A value given as a limit tells only on which side of the number the result lay.

A word on the melting point: it is the temperature of the solid-liquid transition.

The compound `Cc1ccc(C[C@@H]2CN(CCc3cccnc3)CCN2C(=O)c2cc(C(F)(F)F)cc(C(F)(F)F)c2)cc1O.Cl.Cl` came in with a melting point of 90 to 120 °C.

As for `COc1cc(C(=O)N2CCN(Cc3cccnc3)C[C@H]2Cc2ccc(Cl)c(O)c2)cc(C(F)(F)F)c1.Cl.Cl`, the melting point was 215 to 224 °C. In the case of `COc1cc(C(=O)N2CCN(CCN3CCc4ncccc4C3)C[C@H]2Cc2ccc(C(F)(F)F)c(OC)c2)cc(C(F)(F)F)c1.Cl.Cl.Cl` it was 190 to 200 °C; in that of `C[C@@H]1CN(CCN2CCN(C(=O)c3cc(C(F)(F)F)cc(S(C)(=O)=O)c3)[C@H](Cc3ccc(C(F)(F)F)cc3)C2)C[C@H](C)O1.Cl.Cl`, 188 to 195 °C.

In the case of `COc1cc(C[C@@H]2CN(CCCc3cccnc3)CCN2C(=O)c2cc(C(F)(F)F)cc(C(F)(F)F)c2)ccc1F.Cl.Cl`, the melting point fell in the range of 125 to 130 °C. Compound `COC[C@@H]1CN(CC#CCN2CCN(C(=O)c3cc(C(F)(F)F)cc(C(F)(F)F)c3)C(Cc3ccc(C)c(O)c3)C2)[C@@H](C)CO1.Cl.Cl` (stereo partly shown) registered a melting point of 110 to 135 °C. In the case of `CNc1cc(C[C@@H]2CN(CCN3CCO[C@H](COC)C3)CCN2C(=O)c2cc(C(F)(F)F)cc(C(F)(F)F)c2)ccc1C.Cl.Cl.Cl` it was 156 to 163 °C; in that of `COc1cc(C[C@@H]2CN(CCN3CCc4ncccc4C3)CCN2C(=O)c2cc(C(F)(F)F)cc(C(F)(F)F)c2)ccc1F.Cl.Cl.Cl`, 175 to 185 °C; in that of `COC[C@@H]1CN(CCN2CCN(C(=O)c3cc([N+](=O)[O-])cc(C(F)(F)F)c3)[C@H](Cc3ccc(C)c(O)c3)C2)CCO1.Cl.Cl`, 181 to 185 °C.

With `COC[C@@H]1COCCN1CCN1CCN(C(=O)c2cc(C(F)(F)F)cc(C(F)(F)F)c2)C(Cc2ccc(C)c(O)c2)C1.Cl.Cl` (stereo partly shown), the melting point lay within 167 to 172 °C. In the case of `COC[C@@H]1CN(CCN2CCN(C(=O)c3cc(C(F)(F)F)cc(C(F)(F)F)c3)[C@H](Cc3ccc(F)c(OC)c3)C2)[C@@H](C)CO1.Cl.Cl` it was 140 to 164 °C. The result for `Cl.Cn1cc(CN2CCN(C(=O)c3cc(C(F)(F)F)cc(C(F)(F)F)c3)[C@H](Cc3ccc(Cl)c(O)c3)C2)cn1` reads 159 to 163 °C.

For `COC[C@@H]1CN(CCN2CCN(C(=O)c3cc(C(F)(F)F)cc(C(F)(F)F)c3)[C@H](Cc3ccc(F)c(O)c3)C2)CCO1.Cl.Cl`, the melting point lay within 156 to 168 °C. For the compound `Cc1ccc(C[C@@H]2CN(CCN3CCOc4cccnc43)CCN2C(=O)c2cc(C(F)(F)F)cc(C(F)(F)F)c2)cc1O.Cl.Cl`, the melting point was in the range of 190 to 200 °C.

In the case of `COC[C@@H]1CN(CCN2CCN(C(=O)c3cc(SC)cc(C(F)(F)F)c3)[C@H](Cc3ccc(Cl)c(O)c3)C2)CCO1.Cl.Cl`, the melting point is 169 to 174 °C.

Compound `COC[C@H]1CN(CCN2CCN(C(=O)c3cc(C(F)(F)F)cc(C(F)(F)F)c3)[C@H](Cc3ccc(C)c(O)c3)C2)CCO1.Cl.Cl` registered a melting point of 225 to 235 °C. The result for `COc1cc(C[C@@H]2CN(Cc3cnn(C)c3)CCN2C(=O)c2cc(C(F)(F)F)cc(C(F)(F)F)c2)ccc1F.Cl` reads 127 to 135 °C; that for `CO[C@H]1CN(CCN2CCN(C(=O)c3cc(C(F)(F)F)cc(C(F)(F)F)c3)[C@H](Cc3ccc(C(F)(F)F)cc3)C2)C[C@@H]1OC.Cl.Cl`, 203 to 208 °C; that for `Cl.Cl.O=C(c1cc(C(F)(F)F)cc(C(F)(F)F)c1)N1CCN(CCN2CCC(F)(F)CC2)C[C@H]1Cc1ccc(Cl)c(O)c1`, 166 to 170 °C. For `COC[C@@H]1CN(CCN2CCN(C(=O)c3cc(C(F)(F)F)cc(C(F)(F)F)c3)[C@H](Cc3ccc(C(F)(F)F)cc3)C2)[C@@H](C)CO1.Cl.Cl`, the melting point lay within 142 to 182 °C. For `COC[C@@H]1CN(C/C=C\CN2CCN(C(=O)c3cc(C(F)(F)F)cc(C(F)(F)F)c3)[C@H](Cc3ccc(C)c(O)c3)C2)CCO1.Cl.Cl`, the melting point lay in the range of 180 to 200 °C. The compound `Cc1ccc(CC2CN(CCN3C[C@H]4C[C@H]3C(C)(C)O4)CCN2C(=O)c2cc(C(F)(F)F)cc(C(F)(F)F)c2)cc1O.Cl.Cl` (stereo partly shown) showed a melting point of 173 to 185 °C. `COC[C@@H]1CN(CCN2CCN(C(=O)c3cc(C(F)(F)F)cc(C(F)(F)F)c3)[C@H](Cc3ccc(C)c(N4CCOCC4)c3)C2)CCO1.Cl.Cl.Cl` showed a melting point of 150 to 170 °C.

In turn, `Cl.Cl.Cl.Cl.O=C(c1cc(-c2ccncc2)cc(C(F)(F)F)c1)N1CCN(CCN2CCc3ncccc3C2)C[C@H]1Cc1ccc(Cl)cc1` showed a melting point of 206 to 217 °C. As to `COc1cc(C[C@@H]2CN(CCN3CC4CCC(C3)O4)CCN2C(=O)c2cc(C(F)(F)F)cc(C(F)(F)F)c2)ccc1F.Cl.Cl`, the melting point was in the range of 163 to 178 °C.

Consider `COC[C@H]1CN(CCN2CCN(C(=O)c3cc(C(F)(F)F)cc(C(F)(F)F)c3)[C@H](Cc3ccc(C(F)(F)F)cc3)C2)CCO1.Cl.Cl`, for which the melting point was 188 to 194 °C.

Regarding `COC[C@@H]1CN(CCN2CCN(C(=O)c3cc(C(F)(F)F)cc(C(F)(F)F)c3)[C@H](Cc3ccc(F)c(F)c3)C2)CCO1.Cl.Cl`, the melting point fell in the range of 196 to 198 °C.

In turn, `COc1cc(C(=O)N2CCN(CCCc3cccnc3)C[C@H]2Cc2c[nH]c3ccccc23)cc(C(F)(F)F)c1.Cl.Cl` gave a melting point of 135 to 145 °C. In the case of `COC[C@@H]1CN(CCN2CCN(C(=O)c3cc(SC)cc(C(F)(F)F)c3)[C@H](Cc3ccc(F)c(OC)c3)C2)CCO1.Cl.Cl` it was 132 to 135 °C; in that of `COC[C@@H]1CN(CCN2CCN(C(=O)c3cc(OC)cc(C(F)(F)F)c3)[C@H](Cc3ccc4ccccc4c3)C2)CCO1.Cl.Cl`, 134 to 140 °C; in that of `C[C@@H]1CN(CCN2CCN(C(=O)c3cc(F)cc(C(F)(F)F)c3)[C@H](Cc3ccc(Cl)cc3)C2)C[C@H](C)O1.Cl.Cl`, 80.1 to 82.5 °C. Turning to `Cl.Cl.O=C(c1cc(C(F)(F)F)cc(C(F)(F)F)c1)N1CCN(CCN2CC3CCC(C2)O3)C[C@H]1Cc1ccc(C(F)(F)F)cc1`, the melting point was in the range of 232 to 250 °C. In the case of `COC[C@@H]1CN(CCN2CCN(C(=O)c3cc(C(F)(F)F)cc(C(F)(F)F)c3)[C@H](Cc3ccc(C)c(NCN4C(=O)CCC4O)c3)C2)CCO1.Cl.Cl.Cl` (stereo partly shown) it was 163 to 176 °C; in that of `CSc1cc(C(=O)N2CCN(CCN3C[C@@H](C)O[C@@H](C)C3)C[C@H]2Cc2ccc(C(F)(F)F)cc2)cc(C(F)(F)F)c1.Cl.Cl`, 154 to 156 °C. In the case of `COC[C@@H]1CN(CCN2CCN(C(=O)c3cc(C(F)(F)F)cc(S(N)(=O)=O)c3)[C@H](Cc3ccc(C)c(O)c3)C2)CCO1.Cl.Cl` it was 166 to 206 °C. The result for `COC[C@@H]1CN(CC#CCN2CCN(C(=O)c3cc(C(F)(F)F)cc(C(F)(F)F)c3)[C@H](Cc3ccc(C)c(O)c3)C2)CCO1.Cl.Cl` reads 110 to 130 °C; that for `COC[C@@H]1CN(CCN2CCN(C(=O)c3cc(C(F)(F)F)cc(C(F)(F)F)c3)[C@H](Cc3ccc(C(F)(F)F)cc3)C2)CCO1.Cl.Cl`, 146 to 159 °C. Turning to `COC[C@@H]1CN(CCN2CCN(C(=O)c3cc(-n4cccc4)cc(C(F)(F)F)c3)[C@H](Cc3ccc(C)c(O)c3)C2)CCO1.Cl.Cl`, the melting point lay within 159 to 170 °C. In the case of `COC[C@@H]1CN(CCN2CCN(C(=O)c3cc(C(F)(F)F)cc(C(F)(F)F)c3)[C@H](Cc3ccc(C)c(F)c3)C2)CCO1.Cl.Cl`, the melting point fell in the range of 148 to 160 °C. In the case of `C[C@@H]1CN(CCN2CCN(C(=O)c3cc(C(F)(F)F)cc(C(F)(F)F)c3)[C@H](Cc3ccc(F)cc3)C2)C[C@H](C)O1.Cl.Cl` it was 89 to 110.2 °C; in that of `Cl.Cn1cc(CN2CCN(C(=O)c3cc(C(F)(F)F)cc(C(F)(F)F)c3)[C@H](Cc3ccc4ccccc4c3)C2)cn1`, above 250 °C. `Cl.Cl.O=C(c1cc(C(F)(F)F)cc(C(F)(F)F)c1)N1CCN(CCN2CCC(F)(F)CC2)C[C@H]1Cc1ccc(C(F)(F)F)cc1` gave a melting point of 209 to 253 °C. Consider `COC[C@@H]1CN(CCN2CCN(C(=O)c3cc(N(C)C)cc(C(F)(F)F)c3)[C@H](Cc3ccc(C)c(O)c3)C2)CCO1.Cl.Cl`, for which the melting point lay in the range of 182 to 186 °C. The result for `COc1cc(C(=O)N2CCN(CCN3CCC(F)(F)CC3)C[C@H]2Cc2ccc(F)cc2)cc(C(F)(F)F)c1.Cl.Cl` reads 258.4 to 261.4 °C; that for `COc1cc(C(=O)N2CCN(Cc3cccnc3)C[C@H]2Cc2ccc(C(F)(F)F)cc2)cc(C(F)(F)F)c1.Cl.Cl`, 101 to 108 °C. In the case of `COC[C@@H]1CN(CCN2CCN(C(=O)c3cc(OC)cc(C(F)(F)F)c3)[C@H](Cc3ccc(Cl)cc3)C2)CCO1.Cl.Cl` it was 70 to 90 °C. In the case of `C[C@@H]1CN(CCN2CCN(C(=O)c3cc(C(F)(F)F)cc(C(F)(F)F)c3)[C@H](Cc3ccc(F)c(O)c3)C2)C[C@H](C)O1.Cl.Cl` it was 170 to 195 °C; in that of `COc1cc(C(=O)N2CCN(CCN3CCC(F)(F)CC3)C[C@H]2Cc2c[nH]c3ccccc23)cc(C(F)(F)F)c1.Cl.Cl`, 130 to 140 °C. For `COc1cc(C(=O)N2CCN(Cc3cccnc3)C[C@H]2Cc2ccc3ccccc3c2)cc(C(F)(F)F)c1.Cl.Cl`, the melting point was in the range of 162 to 168 °C.

`COC[C@@H]1CN(CCN2CCN(C(=O)c3cc(C(F)(F)F)cc(C(F)(F)F)c3)[C@H](Cc3ccc(Cl)c(OC)c3)C2)CCO1.Cl.Cl`: the melting point lay in the range of 145 to 149 °C.

For `COC[C@@H]1CN(CCN2CCN(C(=O)c3cc(OC)cc(C(F)(F)F)c3)[C@H](Cc3ccc(C(F)(F)F)cc3)C2)CCO1.Cl.Cl`, the melting point lay in the range of 126 to 155 °C. As to `COC[C@@H]1CN(CCN2CCN(C(=O)c3cc(C(F)(F)F)cc(C(F)(F)F)c3)C(Cc3ccc(C)c(O)c3)C2)[C@@H](C)CO1.Cl.Cl` (stereo partly drawn) [4-(2), 1-[3,5-Bis(trifluoromethyl)benzoyl]-2-(3-hydroxy-4-methylbenzyl)-4-[2-[(2S,5S)-2-methoxymethyl-5-methylmorpholino]ethyl]piperazine dihydrochloride], the melting point fell in the range of 214 to 218 °C. In the case of `COc1cc(C(=O)N2CCN(CCCc3cccnc3)C[C@H]2Cc2ccc(F)cc2)cc(C(F)(F)F)c1.Cl.Cl` it was 111.5 to 118.3 °C; in that of `COc1cc(C[C@@H]2CN(CCN3[C@H](CO)CCC[C@@H]3CO)CCN2C(=O)c2cc(C(F)(F)F)cc(C(F)(F)F)c2)ccc1F.Cl.Cl`, 159 to 161 °C. The compound `CC1(C)COCCN1CC#CCN1CCN(C(=O)c2cc(C(F)(F)F)cc(C(F)(F)F)c2)[C@H](Cc2ccc(F)cc2)C1.Cl.Cl` returned a melting point of 76.5 to 130.6 °C.
